# Data from PMC12366332 (Applied and Environmental Microbiology, 2025).
# Read-outs that look alike come from different tables or passages of the source. Ends that are not written are not given here.
# Assays:
# [1] = test system: E. coli 0111:B4 LPS; type: biochemical, Escherichia coli
# [2] = test system: horse erythrocytes; settings: red cells of horse, 50 µM
# [3] = test system: X. fastidiosa subsp. fastidiosa IVIA 5387.2
# [4] = test system: tobacco leaves; settings: 150 µM; after 48 h
Compound,LPS neutralization Ratio (treatment/NTC) [1],Hemolytic activity (%) [2] [%],Bactericidal activity Level ([3]; 50 µM),Bactericidal activity Reduction in viability (Log N0/N) ([3]; 50 µM),Phytotoxicity: diameter of the lesion [4] [mm],Bactericidal activity Reduction in viability (Log N0/N) ([3]; 12.5 µM),Bactericidal activity Reduction in viability (Log N0/N) ([3]; 3.1 µM)
"CCCCCC(=O)NCCCC[C@H](NC(=O)[C@H](CCCCN)NC(=O)[C@H](CCCCN)NC(=O)[C@@H](Cc1ccccc1)NC(=O)[C@H](CC(C)C)NC(=O)[C@H](CCCCN)NC(=O)[C@H](CCCCN)NC(C)=O)C(=O)N[C@@H](CC(C)C)C(=O)N[C@@H](CCCCN)C(=O)N[C@@H](Cc1ccc(O)cc1)C(=O)N[C@@H](CC(C)C)C(N)=O [BP494, Ac-KKLfKKK(COC5H11)LKYL-NH2]","0,51",0,Low (key: Very High: very high bactericidal activity (>2.5 log); High: high bactericidal activity (between 2.0 and 2.5 log); Moderate: a moderate activity (between 1.5 and 2.0 log); Low: low active (<1.5 log)),"1,21 Log N0/N",6,–,–
"CCCC(=O)NCCCC[C@H](NC(C)=O)C(=O)N[C@@H](CCCCN)C(=O)N[C@@H](CC(C)C)C(=O)N[C@H](Cc1ccccc1)C(=O)N[C@@H](CCCCN)C(=O)N[C@@H](CCCCN)C(=O)N[C@H](C(=O)N[C@@H](CC(C)C)C(=O)N[C@@H](CCCCN)C(=O)N[C@@H](Cc1ccc(O)cc1)C(=O)N[C@@H](CC(C)C)C(N)=O)[C@@H](C)CC [BP545, Ac-K(COC3H7)KLfKKILKYL-NH2]","0,56",5,High (key: Very High: very high bactericidal activity (>2.5 log); High: high bactericidal activity (between 2.0 and 2.5 log); Moderate: a moderate activity (between 1.5 and 2.0 log); Low: low active (<1.5 log)),–,4,"0,54 Log N0/N",–
"CCCC(=O)NCCCC[C@@H](NC(=O)[C@H](CC(C)C)NC(=O)[C@H](CCCCN)NC(=O)[C@H](CCCCN)NC(C)=O)C(=O)N[C@@H](CCCCN)C(=O)N[C@@H](CCCCN)C(=O)N[C@H](C(=O)N[C@@H](CC(C)C)C(=O)N[C@@H](CCCCN)C(=O)N[C@@H](Cc1ccc(O)cc1)C(=O)N[C@@H](CC(C)C)C(N)=O)[C@@H](C)CC [BP550, Ac-KKLk(COC3H7)KKILKYL-NH2]","1,09",3,Low (key: Very High: very high bactericidal activity (>2.5 log); High: high bactericidal activity (between 2.0 and 2.5 log); Moderate: a moderate activity (between 1.5 and 2.0 log); Low: low active (<1.5 log)),"0,00 Log N0/N",5,–,–
"CCCC(=O)NCCCC[C@@H](NC(=O)[C@H](CC(C)C)NC(=O)[C@H](CCCCN)NC(=O)[C@H](CCCCN)NC(C)=O)C(=O)N[C@@H](CCCCN)C(=O)N[C@@H](CCCCN)C(=O)N[C@H](C(=O)N[C@@H](CC(C)C)C(=O)N[C@H](C(=O)N[C@@H](Cc1ccc(O)cc1)C(=O)N[C@@H](CC(C)C)C(N)=O)[C@@H](C)CC)[C@@H](C)CC [BP547, Ac-KKLk(COC3H7)KKILIYL-NH2]","0,99",0,Low (key: Very High: very high bactericidal activity (>2.5 log); High: high bactericidal activity (between 2.0 and 2.5 log); Moderate: a moderate activity (between 1.5 and 2.0 log); Low: low active (<1.5 log)),"0,05 Log N0/N",2,–,–
"CCCCCC(=O)NCCCC[C@H](NC(=O)[C@H](Cc1ccc(O)cc1)NC(=O)[C@H](CCCCN)NC(=O)[C@H](CC(C)C)NC(=O)[C@@H](NC(=O)[C@H](CCCCN)NC(=O)[C@H](CCCCN)NC(=O)[C@@H](Cc1ccccc1)NC(=O)[C@H](CC(C)C)NC(=O)[C@H](CCCCN)NC(=O)[C@H](CCCCN)NC(C)=O)[C@@H](C)CC)C(N)=O [BP495, Ac-KKLfKKILKYK(COC5H11)-NH2]","0,55",0,High (key: Very High: very high bactericidal activity (>2.5 log); High: high bactericidal activity (between 2.0 and 2.5 log); Moderate: a moderate activity (between 1.5 and 2.0 log); Low: low active (<1.5 log)),–,6,"0,03 Log N0/N",–
"CCCC(=O)NCCCC[C@H](NC(=O)[C@H](CC(C)C)NC(=O)[C@@H](NC(=O)[C@H](CCCCN)NC(=O)[C@H](CCCCN)NC(=O)[C@@H](Cc1ccccc1)NC(=O)[C@H](CC(C)C)NC(=O)[C@H](CCCCN)NC(=O)[C@H](CCCCN)NC(C)=O)[C@@H](C)CC)C(=O)N[C@@H](Cc1ccc(O)cc1)C(=O)N[C@@H](CC(C)C)C(N)=O [BP499, Ac-KKLfKKILK(COC3H7)YL-NH2]","0,34",2,High (key: Very High: very high bactericidal activity (>2.5 log); High: high bactericidal activity (between 2.0 and 2.5 log); Moderate: a moderate activity (between 1.5 and 2.0 log); Low: low active (<1.5 log)),–,7,–,"0,63 Log N0/N"
"CCCC(=O)NCCCC[C@H](NC(=O)[C@@H](Cc1ccccc1)NC(=O)[C@H](CC(C)C)NC(=O)[C@H](CCCCN)NC(=O)[C@H](CCCCN)NC(C)=O)C(=O)N[C@@H](CCCCN)C(=O)N[C@H](C(=O)N[C@@H](CC(C)C)C(=O)N[C@@H](CCCCN)C(=O)N[C@@H](Cc1ccc(O)cc1)C(=O)N[C@@H](CC(C)C)C(N)=O)[C@@H](C)CC [BP498, Ac-KKLfK(COC3H7)KILKYL-NH2]","0,40",9,Moderate (key: Very High: very high bactericidal activity (>2.5 log); High: high bactericidal activity (between 2.0 and 2.5 log); Moderate: a moderate activity (between 1.5 and 2.0 log); Low: low active (<1.5 log)),"1,58 Log N0/N",7,–,–
"YVKLWRMIKFIR-NH2 [YW12D, YVKLWRMIKFIR-NH2, reference compound]","0,21",12,Low (key: Very High: very high bactericidal activity (>2.5 log); High: high bactericidal activity (between 2.0 and 2.5 log); Moderate: a moderate activity (between 1.5 and 2.0 log); Low: low active (<1.5 log)),"0,59 Log N0/N",1,–,–
"CCCC(=O)NCCCC[C@H](NC(=O)[C@H](CCCCN)NC(=O)[C@H](CCCCN)NC(=O)[C@@H](Cc1ccccc1)NC(=O)[C@H](CC(C)C)NC(=O)[C@H](CCCCN)NC(=O)[C@H](CCCCN)NC(C)=O)C(=O)N[C@@H](CC(C)C)C(=O)N[C@@H](CCCCN)C(=O)N[C@@H](Cc1ccc(O)cc1)C(=O)N[C@@H](CC(C)C)C(N)=O [BP548, Ac-KKLfKKK(COC3H7)LKYL-NH2]","0,65",0,Low (key: Very High: very high bactericidal activity (>2.5 log); High: high bactericidal activity (between 2.0 and 2.5 log); Moderate: a moderate activity (between 1.5 and 2.0 log); Low: low active (<1.5 log)),"0,28 Log N0/N",6,–,–
